Measurements: patent US5075289A, “9-R-azacyclic erythromycin antibiotics” (priority 1988, dated 1991)
Values after ≈ are worked out from the molar mass of the structure shown. Like-named read-outs stand apart in the source and are kept apart here.

Key:
Type in all cases: cell-based
[1] = test system: Staphylococcus aureus 45 RAR 2; assay: microbe, parasite or virus in culture; conditions: 45RAR2
Procedure: (§1) The antimicrobial spectra of a number of compounds of the invention were tested by the following method:
(§2) Twelve petri dishes containing successive aqueous dilutions of the test compound mixed with 10 ml of sterilized Brain Heart Infusion agar (Difco 0418-01-5) are prepared. Each plate is inoculated with 1:100 (or 1:10 for slow growing strains, primarily Micrococcus and Streptococcus) dilutions of up to 32 different microorganisms, using a Steers replicator block The inoculated plates are incubated at 35°-37° C. for 20-24 hours. In addition, a control plate, using BHI agar containing no test compound, is prepared and incubated at the beginning and end of each test.
(§3) An additional plate containing a compound having known susceptibility patterns for the organisms being tested and belonging to the same antibiotic class as the test compound is also prepared and incubated as a further control, as well as to provide test-to-test comparability. Erythromycin A was used for this purpose.
(§4) After incubation, each disk is read. The MIC is defined as the lowest concentration of drug yielding no growth, a slight haze, or sparsely isolated colonies on the inoculum spot as compared to the growth control.

[2] = test system: Micrococcus luteus ATCC 4698; assay: In vitro antibacterial activity, agar dilution MIC
Procedure: as §1, §2, §3, §4

[3] = test system: Micrococcus luteus ATCC 9341; assay: In vitro antibacterial activity, agar dilution MIC
Procedure: as §1, §2, §3, §4

[4] = test system: Staphylococcus aureus ATCC 6538P; assay: In vitro antibacterial activity, agar dilution MIC; conditions: ATCC6538P
Procedure: as §1, §2, §3, §4

[5] = test system: Streptococcus pyogenes EES61; assay: In vitro antibacterial activity, agar dilution MIC
Procedure: as §1, §2, §3, §4

[6] = test system: Staphylococcus aureus A5177; assay: In vitro antibacterial activity, agar dilution MIC
Procedure: as §1, §2, §3, §4

Staphylococcus aureus 45 = assay: In vitro antibacterial activity, agar dilution MIC
Procedure: as §1, §2, §3, §4

Escherichia coli H560 = assay: In vitro antibacterial activity, agar dilution MIC
Procedure: as §1, §2, §3, §4

[7] = test system: Streptococcus pyogenes 930 CONST; assay: In vitro antibacterial activity, agar dilution MIC
Procedure: as §1, §2, §3, §4

[8] = test system: Streptococcus agalactiae CMX 508; assay: In vitro antibacterial activity, agar dilution MIC
Procedure: as §1, §2, §3, §4

[9] = test system: Staphylococcus aureus CMX 553; assay: In vitro antibacterial activity, agar dilution MIC
Procedure: as §1, §2, §3, §4

[10] = test system: Staphylococcus aureus NCTC 10649; assay: In vitro antibacterial activity, agar dilution MIC
Procedure: as §1, §2, §3, §4

[11] = test system: Streptococcus bovis A5169; assay: In vitro antibacterial activity, agar dilution MIC
Procedure: as §1, §2, §3, §4

Escherichia coli SS = assay: In vitro antibacterial activity, agar dilution MIC
Procedure: as §1, §2, §3, §4

Escherichia coli Juhl = assay: In vitro antibacterial activity, agar dilution MIC
Procedure: as §1, §2, §3, §4

[12] = test system: Staphylococcus epidermidis 3519; assay: In vitro antibacterial activity, agar dilution MIC
Procedure: as §1, §2, §3, §4

[13] = test system: Staphylococcus aureus 642A; assay: In vitro antibacterial activity, agar dilution MIC
Procedure: as §1, §2, §3, §4

[14] = test system: Enterococcus faecium ATCC 8043; assay: In vitro antibacterial activity, agar dilution MIC
Procedure: as §1, §2, §3, §4

Escherichia coli DC-2 = assay: In vitro antibacterial activity, agar dilution MIC
Procedure: as §1, §2, §3, §4

[15] = test system: Staphylococcus aureus CMX 503A; assay: In vitro antibacterial activity, agar dilution MIC; conditions: CMX503A
Procedure: as §1, §2, §3, §4

[16] = test system: Streptococcus pyogenes 2548 INDUC; assay: In vitro antibacterial activity, agar dilution MIC
Procedure: as §1, §2, §3, §4

[17] = test system: Staphylococcus aureus CMX 686B; assay: In vitro antibacterial activity, agar dilution MIC; conditions: CMX686B
Procedure: as §1, §2, §3, §4

[18] = ATCC9341, M. luteus ATCC 9341, Brain Heart Infusion agar, 20-24 hours, read-out: MIC
[19] = S. pyogenes EES61, Brain Heart Infusion agar, 20-24 hours, read-out: MIC
[20] = S. aureus A5177, Brain Heart Infusion agar, 20-24 hours, read-out: MIC
[21] = CMX508, S. agalactiae CMX 508, Brain Heart Infusion agar, 20-24 hours, read-out: MIC
[22] = CMX553, S. aureus CMX 553, Brain Heart Infusion agar, 20-24 hours, read-out: MIC
[23] = S. epidermidis 3519, Brain Heart Infusion agar, 20-24 hours, read-out: MIC
[24] = ATCC4698, M. luteus ATCC 4698, Brain Heart Infusion agar, 20-24 hours, read-out: MIC
[25] = S. aureus 45, Brain Heart Infusion agar, 20-24 hours, read-out: MIC
[26] = E. coli H560, Brain Heart Infusion agar, 20-24 hours, read-out: MIC
[27] = S. bovis A5169, Brain Heart Infusion agar, 20-24 hours, read-out: MIC
[28] = E. coli SS, Brain Heart Infusion agar, 20-24 hours, read-out: MIC
[29] = E. coli Juhl, Brain Heart Infusion agar, 20-24 hours, read-out: MIC
[30] = S. pyogenes 2548 INDUC, Brain Heart Infusion agar, 20-24 hours, read-out: MIC
[31] = ATCC8043, E. faecium ATCC 8043, Brain Heart Infusion agar, 20-24 hours, read-out: MIC

SMILES | MIC [1] [µg/mL] | MIC ([2]; ATCC4698) [µg/mL] | MIC [3, 18] [µg/mL] | MIC [4] [µg/mL] | MIC [5, 19] [µg/mL] | MIC [6, 20] [µg/mL] | MIC (Staphylococcus aureus 45; 45) [µg/mL] | MIC (Escherichia coli H560; H560) [µg/mL] | MIC ([7]; 930CONST) [µg/mL] | MIC [8, 21] [µg/mL] | MIC [9, 22] [µg/mL] | MIC (Escherichia coli Juhl) [µg/mL] | MIC [12, 23] [µg/mL] | MIC ([14]; ATCC8043) [µg/mL] | MIC (Escherichia coli DC-2; DC2) [µg/mL] | MIC [2, 24] [µg/mL] | MIC (Staphylococcus aureus 45; [25]) [µg/mL] | MIC (Escherichia coli H560; [26]) [µg/mL] | MIC ([9]; CMX553) [µg/mL] | MIC ([10]; NCTC10649) [µg/mL] | further results
CC[C@H]1OC(=O)[C@H](C)[C@@H](O[C@H]2C[C@@](C)(OC)[C@@H](O)[C@H](C)O2)[C@H](C)[C@@H](O[C@@H]2O[C@H](C)C[C@H](N(C)C)[C@H]2O)[C@](C)(O)C[C@@H](C)[C@@H](N2CCCC(C)(C)C2)[C@H](C)[C@@H](O)[C@]1(C)O [Example 1] | 0.78 (≈ 0.938 µM) | 0.1 (≈ 0.12 µM) | 0.05 (≈ 0.0602 µM) | 0.39 (≈ 0.469 µM) | 0.1 (≈ 0.12 µM) | 6.2 (≈ 7.46 µM) | 0.39 (≈ 0.469 µM) | 6.2 (≈ 7.46 µM) | > 100 | 0.1 (≈ 0.12 µM) | 0.78 (≈ 0.938 µM) | 25 (≈ 30.1 µM) | 0.78 (≈ 0.938 µM) | 0.1 (≈ 0.12 µM) | 50 (≈ 60.2 µM) |  |  |  |  |  | MIC ([10]; NCTC10649, S. aureus NCTC 10649, Brain Heart Infusion agar, 20-24 hours, read-out: MIC): 0.78 µg/mL (≈ 0.938 µM); MIC ([11]; read-out: MIC): 0.02 µg/mL (≈ 0.0241 µM); MIC (Escherichia coli SS; read-out: MIC): 0.2 µg/mL (≈ 0.241 µM); MIC ([13]; S. aureus 642A, Brain Heart Infusion agar, 20-24 hours, read-out: MIC): 0.78 µg/mL (≈ 0.938 µM)
CC[C@H]1OC(=O)[C@H](C)[C@@H](O[C@H]2C[C@@](C)(OC)[C@@H](O)[C@H](C)O2)[C@H](C)[C@@H](O[C@@H]2O[C@H](C)C[C@H](N(C)C)[C@H]2O)[C@](C)(O)C[C@@H](C)[C@@H](N2CCCCCC2)[C@H](C)[C@@H](O)[C@]1(C)O [Example 2] | 0.39 (≈ 0.477 µM) |  | 0.005 (≈ 0.00612 µM) | 0.39 (≈ 0.477 µM) | 0.05 (≈ 0.0612 µM) | 0.31 (≈ 0.379 µM) |  |  | > 100 | 0.05 (≈ 0.0612 µM) |  |  |  |  | 12.5 (≈ 15.3 µM) | 0.1 (≈ 0.122 µM) | 0.2 (≈ 0.245 µM) | 3.1 (≈ 3.79 µM) | 0.39 (≈ 0.477 µM) | 0.39 (≈ 0.477 µM) | MIC [11, 27]: 0.02 µg/mL (≈ 0.0245 µM); MIC [15]: 0.39 µg/mL (≈ 0.477 µM); MIC (Escherichia coli SS; [28]): 0.1 µg/mL (≈ 0.122 µM); MIC (Escherichia coli Juhl; [29]): 0.1 µg/mL (≈ 0.122 µM); MIC [12]; 3519: 0.39 µg/mL (≈ 0.477 µM); MIC ([13]; 642A): 0.39 µg/mL (≈ 0.477 µM); MIC [16, 30]: 12.5 µg/mL (≈ 15.3 µM); MIC [14, 31]: 0.02 µg/mL (≈ 0.0245 µM)
CC[C@H]1OC(=O)[C@H](C)[C@@H](O[C@H]2C[C@@](C)(OC)[C@@H](O)[C@H](C)O2)[C@H](C)[C@@H](O[C@@H]2O[C@H](C)C[C@H](N(C)C)[C@H]2O)[C@](C)(O)C[C@@H](C)[C@@H](N2CCCC2)[C@H](C)[C@@H](O)[C@]1(C)O [Example 3] | 1.56 (≈ 1.98 µM) |  | 0.39 (≈ 0.494 µM) |  | 0.1 (≈ 0.127 µM) | 25 (≈ 31.7 µM) |  |  |  | 0.2 (≈ 0.253 µM) | 1.56 (≈ 1.98 µM) |  | 1.56 (≈ 1.98 µM) |  |  | 0.78 (≈ 0.989 µM) | 0.78 (≈ 0.989 µM) | 50 (≈ 63.4 µM) |  |  | MIC ([4]; S. aureus ATCC 6538P, Brain Heart Infusion agar, 35-37° C., 20-24 hours, read-out: MIC): 1.56 µg/mL (≈ 1.98 µM); MIC ([7]; S. pyogenes 930 CONST, Brain Heart Infusion agar, 20-24 hours, read-out: MIC): > 100 µg/mL; MIC [11, 27]: 0.1 µg/mL (≈ 0.127 µM); MIC [15]: 1.56 µg/mL (≈ 1.98 µM); MIC (Escherichia coli SS; [28]): 0.39 µg/mL (≈ 0.494 µM); MIC (Escherichia coli Juhl; [29]): > 100 µg/mL; MIC [16, 30]: 50 µg/mL (≈ 63.4 µM); MIC [17]: 1.56 µg/mL (≈ 1.98 µM); MIC [14, 31]: 0.39 µg/mL (≈ 0.494 µM); MIC (Escherichia coli DC-2; DC2, E. coli DC-2, Brain Heart Infusion agar, 20-24 hours, read-out: MIC): 100 µg/mL (≈ 127 µM)
CC[C@H]1OC(=O)[C@H](C)[C@@H](O[C@H]2C[C@@](C)(OC)[C@@H](O)[C@H](C)O2)[C@H](C)[C@@H](O[C@@H]2O[C@H](C)C[C@H](N(C)C)[C@H]2O)[C@](C)(O)C[C@@H](C)[C@@H](N2CC2)[C@H](C)[C@@H](O)[C@]1(C)O [Example 4] | 1.56 (≈ 2.05 µM) | 0.78 (≈ 1.02 µM) |  | 1.56 (≈ 2.05 µM) |  |  | 0.78 (≈ 1.02 µM) | 25 (≈ 32.9 µM) | > 100 |  |  | > 100 |  | 0.2 (≈ 0.263 µM) | 100 (≈ 131 µM) |  |  |  | 1.56 (≈ 2.05 µM) | 1.56 (≈ 2.05 µM) | MIC ([3]; ATCC9341): 0.1 µg/mL (≈ 0.131 µM); MIC ([5]; EES61): 0.2 µg/mL (≈ 0.263 µM); MIC ([6]; A5177): 6.2 µg/mL (≈ 8.15 µM); MIC ([8]; CMX508): 0.2 µg/mL (≈ 0.263 µM); MIC [11]: 0.1 µg/mL (≈ 0.131 µM); MIC (Escherichia coli SS): 0.78 µg/mL (≈ 1.02 µM); MIC [12]; 3519: 1.56 µg/mL (≈ 2.05 µM); MIC ([13]; 642A): 1.56 µg/mL (≈ 2.05 µM); MIC ([16]; 2548INDUC): 12.5 µg/mL (≈ 16.4 µM)
